From patent US8802678B2, “Carbonylated (aza) cyclohexanes as dopamine D3 receptor ligands” (Bioprojet, priority 2006, dated 2014) come the findings set out here.

One may read the melting point as the temperature of the solid-liquid transition.

Compound `COCCCC(=O)N[C@H]1CC[C@H](CCN2CCN(c3cccc(C(F)(F)F)c3F)CC2)CC1` [Example 470, N-(4-{2-[4-(2-Fluoro-3-trifluoromethylphenyl)piperazin-1-yl]ethyl}cyclohexyl)-4-methoxybutanamide] came in with a melting point of 175 °C.

Take `N#CCCCC(=O)N[C@H]1CC[C@H](CCN2CCN(c3ccc(Cl)cc3F)CC2)CC1` [Example 471, N-(4-{2-[4-(4-Chloro-2-fluorophenyl)piperazin-1-yl]ethyl}cyclohexyl)-4-cyanobutanamide]: the melting point came to 171 °C.

For the compound `N#CCC(=O)N[C@H]1CC[C@H](CCN2CCN(c3cc(F)c(F)cc3F)CC2)CC1` [Example 472, 2-Cyano-N-(4-{2-[4-(2,4,5-trifluorophenyl)piperazin-1-yl]ethyl}cyclohexyl)acetamide], the melting point turned out to be 188 °C.

With `N#CCCCC(=O)N[C@H]1CC[C@H](CCN2CCN(c3cc(F)c(F)cc3F)CC2)CC1` [Example 473, 4-Cyano-N-(4-{2-[4-(2,4,5-trifluorophenyl)piperazin-1-yl]ethyl}cyclohexyl)butanamide], the melting point was found to be 153 °C.

As to `CCOCC(=O)N[C@H]1CC[C@H](CCN2CCN(c3ccc(C)cc3)CC2)CC1` [Example 474, 2-Ethoxy-N-{4-[2-(4-p-tolylpiperazin-1-yl)ethyl]cyclohexyl}acetamide], the melting point was 130 °C.

Compound `Cc1ccc(N2CCN(CC[C@H]3CC[C@H](NC(=O)C4=CCCC4)CC3)CC2)cc1` [Example 475, Cyclopent-1-enecarboxylic acid {4-[2-(4-p-tolylpiperazin-1-yl)ethyl]cyclohexyl} amide] yielded a melting point of 227 °C.

Take `O=C(N[C@H]1CC[C@H](CCN2CCN(c3cccc(C(F)(F)F)c3F)CC2)CC1)C1=COCCC1` [Example 476]: the melting point was 207 °C.

In the case of `CC(O)c1cccc(N2CCN(CC[C@H]3CC[C@H](NC(=O)CC(F)(F)F)CC3)CC2)c1` (stereo partly drawn) [Example 477, 3,3,3-trifluoro-N-[4-(2-{4-[3-(1-hydroxyethyl)phenyl]piperazin-1-yl}ethyl)cyclohexyl]propanamide], the melting point is 190 °C.

In the case of `CCOCC(=O)N[C@H]1CC[C@H](CCN2CCN(c3cccc(C(F)(F)F)c3F)CC2)CC1` [Example 478, 2-Ethoxy-N-(4-{2-[4-(2-fluoro-3-trifluoromethylphenyl)piperazin-1-yl]ethyl}cyclohexyl)acetamide], the melting point turned out to be 125 °C.

`N#CCCCC(=O)N[C@H]1CC[C@H](CCN2CCN(c3ccc(Cl)cc3)CC2)CC1` [Example 479, N-(4-{2-[4-(4-Chlorophenyl)piperazin-1-yl]ethyl}cyclohexyl)-4-cyanobutanamide] showed a melting point of 190 °C.

Compound `O=C(CC(F)(F)F)N[C@H]1CC[C@H](CCN2CCN(c3ccc(Cl)cc3)CC2)CC1` [Example 480, N-(4-{2-[4-(4-Chlorophenyl)-piperazin-1-yl]ethyl}cyclohexyl)-3,3,3-trifluoropropanamide] came in with a melting point of 234 °C.

For `CC(=O)CN1CCC(CCN2CCN(c3ccc(C)cc3F)CC2)CC1` [Example 482, 1-(4-{2-[4-(2-Fluoro-4-methylphenyl)piperazin-1-yl]ethyl}piperidin-1-yl)propan-2-one], the melting point amounted to 65 °C.

Compound `COc1ccc(C)cc1N1CCN(CC[C@H]2CC[C@H](NC(=O)CCCC#N)CC2)CC1` [Example 483, 4-Cyano-N-(4-{2-[4-(2-methoxy-5-methylphenyl)piperazin-1-yl]ethyl}cyclohexyl)butanamide] yielded a melting point of 164 °C.

As to `Cc1ccc(N2CCN(CC[C@H]3CC[C@H](NC(=O)CC#N)CC3)CC2)c(F)c1` [Example 484, 2-Cyano-N-(4-{2-[4-(2-fluoro-4-methylphenyl)piperazin-1-yl]ethyl}cyclohexyl)acetamide], the melting point was determined as 197 °C.

As to `Cc1ccc(N2CCN(CC[C@H]3CC[C@H](NC(=O)CCCC#N)CC3)CC2)c(F)c1` [Example 485, 4-Cyano-N-(4-{2-[4-(2-fluoro-4-methylphenyl)piperazin-1-yl]ethyl}cyclohexyl)butanamide], the melting point worked out at 173 °C.

In turn, `O=C(N[C@H]1CC[C@H](CCN2CCN(c3ccc(Cl)c(Cl)c3)CC2)CC1)C1=CCCC1` [Example 486, Cyclopent-1-enecarboxylic acid (4-{2-[4-(3,4-dichlorophenyl)piperazin-1-yl]ethyl}cyclohexyl) amide] yielded a melting point of 202 °C.

The compound `CCOCC(=O)N[C@H]1CC[C@H](CCN2CCN(c3ccc(Cl)c(Cl)c3)CC2)CC1` [Example 487, N-(4-{2-[4-(3,4-Dichlorophenyl)piperazin-1-yl]ethyl}cyclohexyl)-2-ethoxyacetamide] gave a melting point of 112 °C.

`O=C(N[C@H]1CC[C@H](CCN2CCN(c3ccc(Cl)cc3)CC2)CC1)C1=CCCC1` [Example 488, Cyclopent-1-enecarboxylic acid (4-{2-[4-(4-chlorophenyl)-piperazin-1-yl]ethyl}cyclohexyl) amide]: the melting point was determined as 237 °C.

On to `Cc1ccc(N2CCN(CC[C@H]3CC[C@H](NC(=O)C4=CCCC4)CC3)CC2)cc1Cl` [Example 491, Cyclopent-1-enecarboxylic acid (4-{2-[4-(3-chloro-4-methylphenyl)piperazin-1-yl]ethyl}cyclohexyl) amide], for which the melting point amounted to 197 °C.

As to `Cc1ccc(N2CCN(CC[C@H]3CC[C@H](NC(=O)CC(F)(F)F)CC3)CC2)cc1Cl` [Example 492, N-(4-{2-[4-(3-Chloro-4-methylphenyl)piperazin-1-yl]ethyl}cyclohexyl)-3,3,3-trifluoropropanamide], the melting point stood at 192 °C.

As to `Cc1ccc(N2CCN(CC[C@H]3CC[C@H](NC(=O)CC(F)(F)F)CC3)CC2)cc1` [Example 493, 3,3,3-Trifluoro-N-{4-[2-(4-p-tolylpiperazin-1-yl)ethyl]cyclohexyl}propanamide], the melting point was 217 °C.

With `O=C(N[C@H]1CC[C@H](CCN2CCN(c3ccc(F)cc3F)CC2)CC1)C1CC=CC1` [Example 494, Cyclopent-3-enecarboxylic acid (4-{2-[4-(2,4-difluorophenyl)-piperazin-1-yl]ethyl}cyclohexyl) amide], the melting point is 199 °C.

`CC(=O)CN1CCC(CCN2CCN(c3ccc(Cl)c(Cl)c3)CC2)CC1` [Example 495, 1-(4-{2-[4-(3,4-Dichlorophenyl)-piperazin-1-yl]ethyl}piperidin-1-yl)propan-2-one] showed a melting point of 114 °C.

In turn, `O=C(N[C@H]1CC[C@H](CCN2CCN(c3cccc(C(F)(F)F)c3F)CC2)CC1)C1=COCC1` [Example 497, 4,5-Dihydrofuran-3-carboxylic acid (4-{2-[4-(2-fluoro-3-trifluoromethylphenyl)piperazin-1-yl]ethyl}cyclohexyl) amide] came in with a melting point of 192 °C.

In turn, `O=C(N[C@H]1CC[C@H](CCN2CCN(c3cccc(C(F)(F)F)c3F)CC2)CC1)[C@@H]1CCCN1` [Example 501, Pyrrolidine-2-carboxylic acid (4-{2-[4-(2-fluoro-3-trifluoro-methylphenyl)piperazin-1-yl]ethyl}cyclohexyl) amide] gave a melting point of 140 °C.

For `COCCCC(=O)N[C@H]1CC[C@H](CCN2CCN(c3ccc(Cl)c(Cl)c3)CC2)CC1` [Example 502, N-(4-{2-[4-(3,4-Dichlorophenyl)piperazin-1-yl]ethyl}cyclohexyl)-4-methoxybutanamide], the melting point was 175 °C.

On to `CCOCC(=O)N[C@H]1CC[C@H](CCN2CCN(c3ccc(F)cc3F)CC2)CC1` [Example 503, N-(4-{2-[4-(2,4-Difluorophenyl)piperazin-1-yl]ethyl}cyclohexyl)-2-ethoxyacetamide], for which the melting point came to 130 °C.

On to `COCCCC(=O)N[C@H]1CC[C@H](CCN2CCN(c3ccc(F)cc3F)CC2)CC1` [Example 504, N-(4-{2-[4-(2,4-Difluorophenyl)piperazin-1-yl]ethyl}cyclohexyl)-4-methoxybutanamide], for which the melting point came out at 185 °C.

Compound `Cc1ccc(N2CCN(CC[C@H]3CC[C@H](NC(=O)CCCC#N)CC3)CC2)cc1C` [Example 505, 4-Cyano-N-(4-{2-[4-(3,4-dimethylphenyl)piperazin-1-yl]ethyl}cyclohexyl)butanamide] registered a melting point of 172 °C.

As to `COCCCC(=O)N[C@H]1CC[C@H](CCN2CCN(c3ccc(C)c(C)c3)CC2)CC1` [Example 506, N-(4-{2-[4-(3,4-Dimethylphenyl)piperazin-1-yl]ethyl}cyclohexyl)-4-methoxybutanamide], the melting point was 161 °C.

Regarding `Cc1ccc(N2CCN(CC[C@H]3CC[C@H](NC(=O)C4=CCCC4)CC3)CC2)cc1C` [Example 507, Cyclopent-1-enecarboxylic acid (4-{2-[4-(3,4-dimethylphenyl)-piperazin-1-yl]ethyl}cyclohexyl) amide], the melting point came out at 201 °C.

`CCOCC(=O)N[C@H]1CC[C@H](CCN2CCN(c3ccc(C)c(C)c3)CC2)CC1` [Example 508, N-(4-{2-[4-(3,4-Dimethylphenyl)piperazin-1-yl]ethyl}cyclohexyl)-2-ethoxyacetamide] gave a melting point of 122 °C.

The compound `Cc1ccc(N2CCN(CC[C@H]3CC[C@H](NC(=O)CC(F)(F)F)CC3)CC2)cc1C` [Example 509, N-(4-{2-[4-(3,4-Dimethylphenyl)piperazin-1-yl]ethyl}cyclohexyl)-3,3,3-trifluoropropanamide] had a melting point of 199 °C.

`N#CCCCC(=O)N[C@H]1CC[C@H](CCN2CCN(c3ccc4c(c3)CCCC4)CC2)CC1` [Example 510, 4-Cyano-N-(4-{2-[4-(5,6,7,8-tetrahydronaphthalen-2-yl)piperazin-1-yl]ethyl}cyclohexyl)butanamide] yielded a melting point of 170 °C.

Compound `N#Cc1cccc(N2CCN(CC[C@H]3CC[C@H](NC(=O)CC(F)(F)F)CC3)CC2)c1` [Example 511, N-(4-{2-[4-(3-Cyanophenyl)piperazin-1-yl]ethyl}cyclohexyl)-3,3,3-trifluoropropanamide] came in with a melting point of 180 °C.

The compound `N#Cc1cccc(N2CCN(CC[C@H]3CC[C@H](NC(=O)C4=CCCC4)CC3)CC2)c1` [Example 512, Cyclopent-1-enecarboxylic acid (4-{2-[4-(3-cyanophenyl)-piperazin-1-yl]ethyl}cyclohexyl) amide] came in with a melting point of 191 °C.
